# Measured values taken from patent publication US20220146526A1, “METHOD FOR EVALUATING SAMPLE, ANALYSIS METHOD, METHOD FOR DETECTING DEGRADED SAMPLE, MARKER FOR DETECTING DEGRADED BLOOD PLASMA SAMPLE, AND MARKER FOR DETECTING DEGRADED SERUM SAMPLE” (SHIMADZU CORPORATION, priority 2019, published 2022).
# What was measured:
# Assay type in all cases: physicochemical, human
# [1] = LC/MS of serum sample: time from centrifugation to isolation (Table K); parameters: key to Rate of increase or decrease: detection intensity relative to the 30-minute value set as 1; conditions: for Rate of increase or decrease: detection intensity relative to 1 at 30 minutes; for Increase or decrease / Time when compound is affected: serum sample, LC/MS; for Increase or decrease: detection intensity vs 30 minutes from centrifugation to isolation; for Time when compound is affected: time from centrifugation to isolation, detection intensity changed by 30% or more vs 30 minutes
# Outline: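 Serum left at room temperature 30 min, 1 h or 6 h between centrifugation (3500 rpm, 5 min, room temperature) and isolation, then frozen and analysed by LC/MS (Discovery HS F5-3 column, 40° C., 0.1% formic acid water/acetonitrile, electrospray, MRM). Values are detection intensity relative to the 30-min condition set to 1.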
# [2] = LC/MS of serum sample: number of times of freezing and thawing (Table M); parameters: key to Rate of increase or decrease: detection intensity relative to 1 at 2 freeze-thaw cycles; conditions: for Number of times when compound is affected / Increase or decrease: serum sample, LC/MS; for Number of times when compound is affected: detection intensity changed by 30% or more vs 2 times of freezing and thawing; for Increase or decrease: detection intensity vs 2 times of freezing and thawing
# Outline: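 Serum was isolated at room temperature after centrifugation at room temperature, 3500 rpm, 5 minutes, then frozen and freeze-thawed 2, 4, 6 or 10 times. LC/MS used a Discovery HS F5-3 column at 40° C with formic acid water/acetonitrile, electrospray MRM. Intensity is relative to 2 freeze-thaw cycles.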
# [3] = LC/MS of blood plasma sample: time from blood collection to cooling of blood (Table E); parameters: key to Rate of increase or decrease / Rate of increase or decrease (first value, increase): detection intensity relative to ≤1 min to cooling = 1; conditions: for Increase or decrease: detection intensity, blood collection to cooling 5 minutes or more vs 1 minute or less; for Rate of increase or decrease (second value, decrease) / Rate of increase or decrease (first value, increase): different from individual to individual, relative to 1 at 1 minute or less, collection to cooling 5 minutes; for Rate of increase or decrease (second value, decrease): individuals with decrease; for Rate of increase or decrease (first value, increase): individuals with increase; for Rate of increase or decrease: detection intensity relative to 1 at 1 minute or less, blood collection to cooling 5 minutes
# Method: At room temperature, 5 mL of blood from a healthy subject was taken into a blood-collecting vessel containing EDTA, and the blood-collecting vessel was inverted for mixing, then cooled, and allowed to stand at 4° C. Here, in order to investigate how the detection intensity of molecules contained in the sample was affected in a case where the time to cooling was set to 5 minutes or more as compared to that in a case where the time to cooling was set to 1 minute or less, preparations were performed under both the former condition and the latter condition. After standing, the blood sample was subjected to centrifugation under a condition of 4° C., 3000 rpm, and 15 minutes. […] After centrifugation, the blood-collecting vessel was left to stand at room temperature for 30 minutes, and the blood plasma was isolated during this 30 minutes. The obtained blood plasma sample was frozen and stored. Here, in order to investigate how the detection intensity of molecules contained in the sample was affected in cases where freezing and thawing was performed 4 times, 6 times, and 10 times after freezing as compared to that in a case where freezing and thawing was performed 2 times after freezing, freezing and thawing was performed under the respective conditions of 2, 4, 6, and 10 times.
# Frozen blood plasma samples and serum samples were subjected to GC/MS or LC/MS. In GC/MS, the blood plasma samples and serum samples were subjected to methoxymation and trimethylsilylation and then introduced to GC-MS.
# Analysis column: Discovery HS F5-3 (inner diameter of 2.1 mm, length of 150 mm, film thickness of 3 μm) (Sigma-Aldrich)
# Column temperature: 40° C.
# (A) 0.1% formic acid (dissolved in water)
# (B) 0.1% formic acid (dissolved in acetonitrile)
# Flow velocity: 0.25 mL/min
# Ionization method: electrospray
# Temperature: • Desolvation Line (DL) temperature: 250° C. • Heat block temperature: 400° C. • Interface temperature: 300° C.
# Gas flow rate: • Nebulizer gas flow rate: 3.0 L/min • Drying gas flow rate: 10.0 L/min • Heating gas flow rate: 10.0 L/min
# Mode: multiple reaction monitoring (MRM)
# The rate of increase or decrease in Table E is the value of detection intensity relative to 1 that is the detection intensity in a case where the time from blood collection to cooling is set to 1 minute or less.
# [4] = LC/MS of serum sample: time from blood collection to centrifugation (Table J); conditions: for Rate of increase or decrease: detection intensity relative to 1 at 15 minutes; for Increase or decrease / Time when compound is affected: serum sample, LC/MS; for Increase or decrease: detection intensity vs 15 minutes from blood collection to centrifugation; for Time when compound is affected: time from blood collection to centrifugation, detection intensity changed by 30% or more vs 15 minutes
# Outline: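 Serum from blood centrifuged at room temperature, 3500 rpm, 5 min, then frozen; analysed by LC/MS on a Discovery HS F5-3 column at 40 °C. Mobile phase: 0.1% formic acid in water/acetonitrile, 0.25 mL/min, electrospray MRM. Values are intensity relative to a 15 min collection-to-centrifugation time.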
# [5] = LC/MS of blood plasma sample: time from blood collection to centrifugation (Table D); conditions: blood collection to centrifugation; for Rate of increase or decrease: detection intensity relative to 1 at 15 minutes; for Increase or decrease: detection intensity
# Outline: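 Healthy-subject blood (5 mL, EDTA) cooled and held at 4 °C before centrifugation (4 °C, 3000 rpm, 15 min), with plasma then frozen. LC/MS on Discovery HS F5-3 column at 40 °C, 0.1% formic acid water/acetonitrile, 0.25 mL/min, electrospray, MRM; intensities relative to 15 min collection-to-centrifugation set as 1.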
# [6] = LC/MS of blood plasma sample: number of times of freezing and thawing (Table F); conditions: for Increase or decrease: detection intensity; for Rate of increase or decrease (second value, decrease) / Rate of increase or decrease (first value, increase): different from individual to individual, relative to 1 at 2 times, freezing and thawing 6 times; for Rate of increase or decrease (second value, decrease): individuals with decrease; for Rate of increase or decrease (first value, increase): individuals with increase; for Rate of increase or decrease: detection intensity relative to 1 at 2 times
# Outline: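 Human blood from a healthy subject drawn into EDTA tubes, cooled to 4° C within 1 min or after ≥5 min, centrifuged at 4° C, 3000 rpm, 15 min. Plasma frozen, then freeze-thawed 2, 4, 6 or 10 times and analysed by LC/MS (ESI, MRM). Intensities expressed relative to 2 freeze-thaw cycles set as 1.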
# [7] = after 1 hour from centrifugation to isolation
# [8] = 4 times of freezing and thawing, detection intensity relative to 1 at 2 times
# [9] = after 4 hours from blood collection to centrifugation
# [10] = freezing and thawing 6 times vs 2 times
# [11] = freezing and thawing 4 times vs 2 times
# [12] = after 6 hours from centrifugation to isolation
# [13] = 10 times of freezing and thawing, detection intensity relative to 1 at 2 times
Structure (SMILES),"Rate of increase or decrease [1, 7]",Increase or decrease [1],Time when compound is affected [1],"Rate of increase or decrease [2, 8]",Number of times when compound is affected [2] [times],Increase or decrease [2],Increase or decrease [3],"Rate of increase or decrease (second value, decrease) [3]","Rate of increase or decrease (first value, increase) [3]","Rate of increase or decrease [4, 9]",Increase or decrease [4],Time when compound is affected [4],Rate of increase or decrease ([5]; after 4 hours),Increase or decrease ([5]; after 4 hours vs 15 minutes),"Increase or decrease [6, 10]","Rate of increase or decrease (second value, decrease) [6]","Rate of increase or decrease (first value, increase) [6]",Rate of increase or decrease ([6]; freezing and thawing 4 times),"Increase or decrease [6, 11]",Rate of increase or decrease [3],also measured
Nc1ccn([C@@H]2O[C@H](CO)[C@@H](O)[C@H]2O)c(=O)n1 [Cytidine],0.70,Decrease,After 1 hour hours,1.52,4,Increase,Different from individual,0.46,2.56,0.62,Decrease,After 4 hours,1.95,Increase,Different from individual,0.30,1.54,,,,
OC[C@H]1O[C@@H](n2cnc3c(O)ncnc32)[C@H](O)[C@@H]1O [Inosine],0.61,Decrease,After 1 hour hours,1.44,4,Increase,Different from individual,0.64,18.25,0.17,Decrease,After 4 hours,2.26,Increase,Different from individual,0.53,1.67,,,,
NCCc1c[nH]c2ccc(O)cc12 [Serotonin],0.52,Decrease,After 1 hour hours,,10,Decrease,Different from individual,0.63,1.62,,,,2.95,Increase,Different from individual,0.68,1.57,,,,"Rate of increase or decrease [2, 13]: 0.65"
Nc1ncnc2c1ncn2[C@@H]1O[C@H](COP(=O)(O)O)[C@@H](O)[C@H]1O [Adenosine monophosphate],0.13,Decrease,After 1 hour hours,0.23,4,Decrease,Different from individual,0.62,1.43,,,,1.56,Increase,,,,1.50,Increase,,
Nc1ncnc2nc[nH]c12 [Adenine],0.39,Decrease,After 1 hour hours,0.57,4,Decrease,Increase,,,,,,,,,,,1.37,Increase,1.31,Rate of increase or decrease ([5]; after 6 hours): 0.63; Increase or decrease ([5]; after 6 hours vs 15 minutes): Decrease

# Second part, led by results:
"Rate of increase or decrease [1, 7]",Increase or decrease [1],Time when compound is affected [1],"Rate of increase or decrease [2, 8]",Number of times when compound is affected [2] [times],Increase or decrease [2],Increase or decrease [3],"Rate of increase or decrease (second value, decrease) [3]","Rate of increase or decrease (first value, increase) [3]","Rate of increase or decrease [4, 9]",Increase or decrease [4],Time when compound is affected [4],Rate of increase or decrease ([5]; after 4 hours),Increase or decrease ([5]; after 4 hours vs 15 minutes),"Increase or decrease [6, 10]","Rate of increase or decrease (second value, decrease) [6]","Rate of increase or decrease (first value, increase) [6]",Rate of increase or decrease ([6]; freezing and thawing 4 times),"Increase or decrease [6, 11]",Rate of increase or decrease [3],Structure (SMILES),also measured
1.51,Increase,After 1 hour hours,,6,Different from individual,Different from individual,0.49,1.40,2.82,Increase,After 4 hours,0.66,Decrease,,,,2.09,Increase,,Nc1ncnc2c1ncn2[C@@H]1O[C@H](CSCC[C@H](N)C(=O)O)[C@@H](O)[C@H]1O [S-adenosylhomocysteine],"Rate of increase or decrease ([2]; 6 times of freezing and thawing, relative to 1 at 2 times, different from individual to individual, first value (increase)): 1.62; Rate of increase or decrease ([2]; 6 times of freezing and thawing, relative to 1 at 2 times, different from individual to individual, second value (decrease)): 0.49"
,Increase,After 6 hours,,10,Decrease,Increase,,,2.10,Increase,After 4 hours,,,,,,,,1.93,N[C@@H](CC(=O)O)C(=O)O [Aspartic acid],"Rate of increase or decrease [1, 12]: 2.40; Rate of increase or decrease [2, 13]: 0.53; Rate of increase or decrease ([5]; after 6 hours): 1.46; Increase or decrease ([5]; after 6 hours vs 15 minutes): Increase; Rate of increase or decrease ([6]; freezing and thawing 10 times): 1.76; Increase or decrease ([6]; freezing and thawing 10 times vs 2 times): Increase"
,Decrease,After 6 hours,1.37,4,Increase,Increase,,,,Increase,After 6 hours,1.33,Increase,,,,1.99,Increase,1.67,N[C@@H](CS)C(=O)O [Cysteine],"Rate of increase or decrease [1, 12]: 0.61; Rate of increase or decrease ([4]; after 6 hours from blood collection to centrifugation): 1.39"
